# Laboratory results: US11643431B2, “Uses of hyaluronan conjugate” (priority 2020, dated 2023)
# Assays:
# [1] = test system: IL-6 level in LPS-induced A549 cells; assay: IL-6 level in LPS-induced A549 cells (ELISA); format: cell-based, human; conditions: 0.5 μg/mL LPS, 4.94-400 μM, 48 hours, vs LPS alone, p<0.05
# Description: In this example, A549 cells (human alveolar basal epithelial cells) were used to assess the effect of the present NIM-HA conjugate (CA102N) on the IL-6 level.
# A549 cells in 600 μL F-12K medium were seeded in a density of 5×10^4 per 24-well and incubated overnight. The next day, the medium was discarded and replaced with a fresh medium containing 1 μg/mL LPS with 0, 0.1, 0.2, 0.4 and 0.8 mg/mL CA102N (eq. 0, 5.9, 11.8, 23.6 and 47.2 μM) conjugate or 5 μg/mL (12.7 μM) dexamethasone, which was then incubated for 48 hours. Then, 300 μL of supernatants were collected, and the IL-6 level was measured using a Human IL-6 Uncoated ELISA kit (Catalogue No. 88-7066; Invitrogen). Cells not treated with LPS are used as the negative control, whereas cells treated with LPS but not CA102N are used as the positive control. The results were summarized in FIG. 3, and the data were expressed as mean±standard deviation (SD).
# A549 cells in 600 μL F-12K medium were seeded in a density of 2×10^4 per 24-well and incubated overnight. […] Then, 300 μL of supernatants were collected, and the IL-6 level was measured using Human IL-6 Uncoated ELISA kit (Catalogue No. 88-7066; Invitrogen). […] The results were summarized in FIG. 4, and the data were expressed as mean±standard deviation (SD).
# IL-6, KC/GRO and MCP-1 = assay: Serum IL-6 and IL-6 downstream chemokines in CT26 tumor-bearing mice; format: in vivo; conditions: nimesulide alone 1.5 mg/kg and 5.3 mg/kg i.v.
# Description: When the tumor volumes reached 25-50 mm^3, tumor-bearing mice were randomized to six groups: vehicle control, 50 mg/kg NIM-HA (eq. 1.3 mg/kg Nim) conjugate, 100 mg/kg (eq. 2.6 mg/kg Nim) NIM-HA conjugate, 200 mg/kg (eq. 5.2 mg/kg Nim) NIM-HA conjugate, 1.5 mg/kg nimesulide, and 5.3 mg/kg nimesulide. The vehicle or test samples were i.v. injected two times weekly for two weeks.
# The serum level of IL-6 and two IL-6 downstream chemokines (KC/GRO and MCP-1) were measured following conventional protocols.
# [2] = test system: SARS-CoV-2 pseudotyped lentivirus; format: cell-based
# [3] = prior studies; cited from earlier work
# SARS-CoV-2 pseudovirus = assay: In vivo SARS-CoV-2 pseudovirus infection, lung luminescence (IVIS); set-up: species or system BALB/c mice; conditions: vs positive control
compound,measurement,setting,value
CC(=O)NC1C(O)OC(CO)C(O)C1OC1OC(C(=O)Nc2ccc(NS(C)(=O)=O)c(Oc3ccccc3)c2)C(O)C(O)C1O (stereo not drawn) [NIM-HA disaccharide conjugate],IL-6 level,[1],substantially decrease the IL-6 level in LPS-treated cells in a dose-dependent manner
"CS(=O)(=O)Nc1ccc([N+](=O)[O-])cc1Oc1ccccc1 [nimesulide, N-(4-nitro-2-phenoxyphenyl)methanesulfonamide]",IL-6 blockade,"IL-6, KC/GRO and MCP-1",cannot elicit any effect on IL-6 blockade
same,inhibition of SARS-CoV-2 pseudovirus entry (in words),[2],cannot inhibit SARS-CoV-2 pseudovirus infection by blocking the viral entry
same,hepatotoxicity,[3],significantly associated with hepatotoxicity
same,SARS-CoV-2 pseudovirus infection (lung luminescence),"SARS-CoV-2 pseudovirus; 4 mg/kg nimesulide i.v. 1 hour before intra-tracheal pseudovirus, 24 hours, p<0.05",inhibit significantly compared to the positive control
hyaluronic acid [HA],SARS-CoV-2 pseudovirus infection (lung luminescence),SARS-CoV-2 pseudovirus; HA group (dose not given),no significant difference between the HA group and the positive control
